Assay results published in PMC5665883, “Antithrombotic properties of JJ1, a potent and novel thrombin inhibitor” (Scientific Reports, 2017).
Marks after values point to notes of the source that are not given here.

Tests used:
[1] = Ex vivo aPTT clotting time; format: in vivo, C57BL/6 mice; conditions: mice, i.v., 1 h after administration
Method: (§1) The aPTT and PT were determined using a Thrombotimer (Behnk Elektronik, Norderstedt, Germany) in accordance with the manufacturer’s instructions and as previously described. Briefly, citrated normal human plasma (90 μL) was mixed with 10 μL JJ1 and incubated for 1 min at 37 °C. Subsequently, the aPTT assay reagent (100 μL) was added, the plasma sample was incubated for an additional 1 min at 37 °C, 20 mM CaCl2 (100 μL) was added, and the clotting times were recorded. For the PT assays, citrated normal human plasma (90 μL) was mixed with 10 μL JJ1 stock solution and was incubated for 1 min at 37 °C. The PT assay reagent (200 μL), which had been pre-incubated for 10 min at 37 °C, was subsequently added and the clotting time was recorded. The PT results were expressed in seconds and as International Normalized Ratios (INR): INR = (PT sample/PT control)^ISI, where ISI = international sensitivity index. The aPTT results were also expressed in seconds. All experimental protocols (KNUH 2012-01-010) were approved by the Institutional Review Board of Kyungpook National University Hospitals (Daegu, Republic of Korea).
Male C57BL/6 mice were fasted overnight. Each compound was dissolved in 0.5% DMSO and administered by i.v. injection. One hour after administration, arterial blood samples (0.1 mL) were collected in 3.8% sodium citrate (1:10, v/v) for the ex vivo aPTT and PT determination. The clotting times were determined as described above.

Plasmin = target: T1, Plasmin (Homo sapiens, UniProt P00747); assay: Chromogenic substrate assay, Ki (Dixon); format: biochemical
T1 construct: thrombin versus trypsin, factor Xa, elastase, plasmin, protein Ca, streptokinase, tPA, and urokinase

thrombin [2] = target: T2, thrombin (Homo sapiens, UniProt P00734); assay: Enzyme-based assay of purchased virtual screening molecules, single dose; format: biochemical; conditions: single concentration of 50 μM
T2 construct: purchased Haematologic Technologies (Essex Junction, VT)
Excerpt: Prior to the high-throughput virtual screening, we selected the best crystal structure for docking with DOCK 3.6[17] using the selected inhibitors and their physicochemically matched but topologically different decoys. […] Because the earlier enrichment of true positives is more important for high throughput SBVS, we used the value of LogAUC as a metric, selecting 2CF9-H[18] as the best structure. […] Besides, the enrichment at 1% (EF1) was 37.1. The values of LogAUC and EF1 were approximately two-fold higher than the averages (26.1 for LogAUC and 17.1 for EF1) (Figs 1 and S1). Some structures had higher AUC values than that of 2CF9-H, but the value of LogAUC was the highest for 2CF9-H (Fig. S1). The optimization necessitated the calculations of more than 2 million protein and ligand pairs. The high speed of DOCK 3.6 and the in-house Linux cluster system consisting of 128 cores efficiently managed the calculations in three days. Of the candidate molecules having the lowest scores in the high-throughput SBVS, we chose the molecules with desirable geometries and physicochemical properties by a simple manual and visual inspection. […] It is known that the scoring function of virtual screening itself is insufficient to capture such an abnormality. Table S1 and Fig. S2 list the top 40 molecules, which were selected through high-throughput SBVS; we purchased these molecules to measure enzymatic inhibitory activity.

[3] = system: thrombin-catalyzed fibrin polymerization in human plasma; assay: Thrombin-catalyzed fibrin polymerization; format: biochemical; conditions: absorbance at 360 nm
Method: Thrombin-catalyzed polymerization was determined every 6 s for 20 min by monitoring the turbidity of the solution at 360 nm at ambient temperature by using a spectrophotometer (TECAN, Männedorf, Switzerland). Control plasma and plasma incubated with JJ1 were diluted three-fold in […] and clotted with thrombin (final concentration: 0.5 U/mL). The maximum polymerization rate (Vmax, ΔmOD/min) from each absorbance curve was recorded.

Protein Ca = target: T3, Protein Ca (Homo sapiens, UniProt P04070); assay: Chromogenic substrate assay, Ki (Dixon); format: biochemical
T3 construct: thrombin versus trypsin, factor Xa, elastase, plasmin, protein Ca, streptokinase, tPA, and urokinase

thrombin [4] = target: T2, thrombin; assay: Thrombin activity assay (amidolytic activity, S-2238); format: biochemical; conditions: α-Thrombin, chromogenic substrate; read-out: IC50, inhibition of amidolytic activity of thrombin (converted)
Method: Following a 2-min incubation at 37 °C, thrombin solution (150 μL, 10 U/mL) was added, followed by incubation at 37 °C for 1 min. A solution of the thrombin substrate, S-2238, (150 μL, 1.5 mM) solution was subsequently added and the absorbance at 405 nm was monitored for 120 s using a spectrophotometer (TECAN, Männedorf, Switzerland).

Factor IXa = target: T4, Factor IXa (Homo sapiens, UniProt P00740); assay: Chromogenic substrate assay, Ki (Dixon); format: biochemical
T4 construct: Factor IXa
Method: (§2) Chromogenic substrate assays were performed using a Labsystems IEMS (Cergy Pontoise, France) microtiter plate reader. K i values were calculated according to the method of Dixon[65]. In each assay, the compound was tested at a minimum of seven concentrations, in duplicate, to obtain an inhibition curve. The following general procedures were adopted for each assay. In a 96-well microtiter plate, 25 μL of inhibitor solution or buffer was added to 50 μL of substrate. The enzyme solution (25 μL) was added just before the plate was placed in the microtiter plate reader for 1 h at 37 °C. The hydrolysis of the substrate yields p-nitroaniline, which was continuously monitored spectrophotometrically at 405 nm. The maximal initial reaction rates were calculated and expressed as millioptical density per minute.

Factor XIa = target: T5, Factor XIa (Homo sapiens, UniProt P03951); assay: Chromogenic substrate assay, Ki (Dixon); format: biochemical
T5 construct: Factor XIa
Method: as §2

[5] = Acute pulmonary thrombosis induced by collagen and epinephrine; format: in vivo, C57BL/6 mice; conditions: mice, i.v. 1 h before collagen (500 μg/kg) plus epinephrine (50 μg/kg)
Method: Male C57BL/6 mice were fasted overnight and divided into groups of 10 animals. JJ1 suspended in DMSO was administered to mice intravenously. After 1 h, a mixture of collagen (500 μg/kg) plus epinephrine (50 μg/kg) was injected into the tail vein of mice to induce acute thrombosis 1 h later. Each mouse was carefully examined for 15 min to determine whether the mouse was paralyzed, dead, or had recovered from the acute thrombotic challenge. Five separate experiments were performed and the results were subjected to statistical analysis.

human plasma [6] = assay: In vitro PT clotting time; format: biochemical; conditions: for PT / PT (INR): in vitro
Method: as §1

human plasma [7] = assay: In vitro aPTT clotting time; format: biochemical; conditions: at the maximum antithrombotic dose

T4 sequence (P00740 227-461 limits assumed): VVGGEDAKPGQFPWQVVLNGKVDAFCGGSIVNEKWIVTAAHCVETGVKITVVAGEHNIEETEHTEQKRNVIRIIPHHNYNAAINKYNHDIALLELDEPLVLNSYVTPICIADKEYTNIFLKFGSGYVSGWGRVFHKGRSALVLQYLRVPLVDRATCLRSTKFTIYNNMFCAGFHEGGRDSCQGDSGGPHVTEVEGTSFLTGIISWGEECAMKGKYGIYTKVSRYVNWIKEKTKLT
T4 sequence (P00740 47-191 limits assumed): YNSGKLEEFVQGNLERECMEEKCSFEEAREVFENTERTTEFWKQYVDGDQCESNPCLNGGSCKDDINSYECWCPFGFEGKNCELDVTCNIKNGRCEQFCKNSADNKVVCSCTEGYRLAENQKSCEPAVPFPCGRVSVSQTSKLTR
T1 sequence (P00747 581-810 limits assumed): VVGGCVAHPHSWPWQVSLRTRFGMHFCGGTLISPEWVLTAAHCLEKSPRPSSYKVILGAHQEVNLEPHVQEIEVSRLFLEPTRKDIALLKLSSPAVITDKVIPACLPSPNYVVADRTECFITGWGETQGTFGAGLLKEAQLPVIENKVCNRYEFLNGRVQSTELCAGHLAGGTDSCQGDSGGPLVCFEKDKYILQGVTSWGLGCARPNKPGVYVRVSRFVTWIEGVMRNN
T1 sequence (P00747 97-580 limits assumed): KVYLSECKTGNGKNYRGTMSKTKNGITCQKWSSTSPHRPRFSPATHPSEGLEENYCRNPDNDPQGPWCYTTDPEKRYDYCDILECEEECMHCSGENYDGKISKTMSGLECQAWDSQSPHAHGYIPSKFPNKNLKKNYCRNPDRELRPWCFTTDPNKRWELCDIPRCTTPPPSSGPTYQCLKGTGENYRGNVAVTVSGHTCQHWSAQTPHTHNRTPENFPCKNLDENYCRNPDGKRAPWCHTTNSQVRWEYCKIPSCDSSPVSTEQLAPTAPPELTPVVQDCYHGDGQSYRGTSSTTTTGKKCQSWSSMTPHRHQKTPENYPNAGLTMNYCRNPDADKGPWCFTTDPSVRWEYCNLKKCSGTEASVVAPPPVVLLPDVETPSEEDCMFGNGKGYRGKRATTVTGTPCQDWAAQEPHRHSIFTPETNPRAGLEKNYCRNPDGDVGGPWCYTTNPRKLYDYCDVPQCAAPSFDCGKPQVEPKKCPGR
T3 sequence (P04070 212-450 limits assumed): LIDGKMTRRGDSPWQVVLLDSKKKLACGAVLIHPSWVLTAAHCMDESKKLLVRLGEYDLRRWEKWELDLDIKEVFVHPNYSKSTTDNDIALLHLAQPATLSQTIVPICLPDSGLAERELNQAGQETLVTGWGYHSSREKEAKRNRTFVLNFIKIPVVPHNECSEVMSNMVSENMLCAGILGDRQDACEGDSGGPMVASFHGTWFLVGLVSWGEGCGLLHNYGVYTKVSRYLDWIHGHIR
T3 sequence (P04070 43-197 limits assumed): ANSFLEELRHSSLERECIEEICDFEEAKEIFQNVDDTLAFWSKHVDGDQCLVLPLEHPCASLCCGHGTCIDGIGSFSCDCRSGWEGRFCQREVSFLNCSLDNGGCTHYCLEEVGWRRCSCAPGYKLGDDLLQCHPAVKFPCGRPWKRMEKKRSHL
T5 sequence (P03951 388-625 limits assumed): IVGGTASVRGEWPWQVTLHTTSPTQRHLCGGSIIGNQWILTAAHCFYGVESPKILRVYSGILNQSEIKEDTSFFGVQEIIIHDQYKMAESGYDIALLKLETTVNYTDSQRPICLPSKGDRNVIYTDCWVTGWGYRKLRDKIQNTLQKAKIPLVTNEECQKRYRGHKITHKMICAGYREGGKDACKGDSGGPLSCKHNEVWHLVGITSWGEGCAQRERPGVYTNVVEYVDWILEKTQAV
T5 sequence (P03951 19-387 limits assumed): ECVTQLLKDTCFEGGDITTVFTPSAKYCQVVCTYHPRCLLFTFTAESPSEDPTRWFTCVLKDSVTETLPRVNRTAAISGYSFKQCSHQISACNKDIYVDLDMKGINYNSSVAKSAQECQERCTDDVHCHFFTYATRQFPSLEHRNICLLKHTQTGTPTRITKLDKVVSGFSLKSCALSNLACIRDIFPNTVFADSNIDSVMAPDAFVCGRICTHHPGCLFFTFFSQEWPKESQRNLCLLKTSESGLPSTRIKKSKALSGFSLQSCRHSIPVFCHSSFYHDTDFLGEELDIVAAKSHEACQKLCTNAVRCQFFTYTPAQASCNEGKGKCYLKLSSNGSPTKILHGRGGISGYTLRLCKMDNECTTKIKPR

c1ccc2c(NC3CCCC3)nc(Nc3ccncc3)nc2c1 [JJ1]
aPTT ([1]; 0.31 μg/mouse): 31.9 ± 0.6 s
aPTT ([1]; 0.61 μg/mouse): 40.1 ± 1.1 s
aPTT ([1]; 1.23 μg/mouse): 49.4 ± 1.5 s
aPTT ([1]; 3.06 μg/mouse): 55.8 ± 1.2 s
Selectivity ratio (Plasmin; K i Plasmin/K i α-thrombin): >10,000
Ki (Plasmin; Plasmin): > 250 µM
Degree of inhibition in the enzyme-based assay (thrombin [2]): inhibitory effects
Maximal rate of fibrin polymerization [3]: significantly decreased the maximal rate of fibrin polymerization
Selectivity ratio (Protein Ca; K i Protein Ca/K i α-thrombin): >10,000
Ki (Protein Ca; Protein Ca): > 250 µM
IC50 (thrombin [4]): 0.15 µM
Ki (Factor IXa; Factor IXa): > 250 µM
Selectivity ratio (Factor IXa; K i Factor IXa/K i α-thrombin): >10,000
Ki (Factor XIa; Factor XIa): > 250 µM
Selectivity ratio (Factor XIa; K i Factor XIa/K i α-thrombin): >10,000
Mortality [5]: decreased significantly
Concentration that doubled the clotting time, PT assay (human plasma [6]): 1.61 µM
PT (human plasma [6]; 0.05 μM): 12.1 ± 0.2 s
PT (INR) (human plasma [6]; 0.05 μM): 1.04 INR
PT (human plasma [6]; 0.1 μM): 11.7 ± 0.4 s
PT (INR) (human plasma [6]; 0.1 μM): 0.96 INR
PT (human plasma [6]; 0.2 μM): 12.7 ± 0.5 s
PT (INR) (human plasma [6]; 0.2 μM): 1.17 INR
PT (human plasma [6]; 0.5 μM): 15.4 ± 0.4 s
PT (INR) (human plasma [6]; 0.5 μM): 1.86* INR
PT (human plasma [6]; 1.0 μM): 21.4 ± 0.5 s
PT (INR) (human plasma [6]; 1.0 μM): 4.09* INR
PT (human plasma [6]; 2.0 μM): 25.8 ± 0.3 s
PT (INR) (human plasma [6]; 2.0 μM): 6.41* INR
PT (human plasma [6]; 5.0 μM): 26.5 ± 0.4 s
PT (INR) (human plasma [6]; 5.0 μM): 6.83* INR
Prolongation of aPTT (human plasma [7]): 2.17 fold
